Laboratory results: patent publication US8546611B2 (priority 2008, dated 2013)
Where two headings read alike, the source gives them in different places.

Columns and labels:
[1] = tested on: erythroid cells isolated from the bone marrow of laboratory mice males; conditions: feed with succinic acid 20 mg/kg body wt., not irradiated, norm 5.0±1.0
Method: The test for genotoxicity was performed on young laboratory mice males (18-20 g; 6 animals in each group). […] The control animals were given water.

Wistar rat males = conditions: for Eosinophils, 6 h after / Lymphocytes, 6 h after / Number of leukocytes in 1 μl of blood, 6 h after / Segmentated cells, 6 h after: 6 h after immobilization; for Eosinophils, 6 h after / Lymphocytes, 6 h after / Number of leukocytes in 1 μl of blood, 6 h after / Segmentated cells, 6 h after / Eosinophils, before / Lymphocytes, before / Number of leukocytes in 1 μl of blood, before / Segmentated cells, before: 1.5 ml of 1% succinic acid perorally 10 min prior; for Eosinophils, before / Lymphocytes, before / Number of leukocytes in 1 μl of blood, before / Segmentated cells, before: at the moment of immobilization
Method: Examples, illustrating the method invented, are presented below. […] SA is tested on rats endured an immobilization stress; the parameter tested is lymphocytic composition of blood, which is determined before and after stress in a blood smear taken from the caudal vein. […] A detailed description of the testing technique is given in Example 13.
The animals were fixed while lying flat on their back, with their legs secured. […] Blood was taken from the caudal vein: 10 μl for counting blood corpuscles and 20 μl for preparing a smear with its subsequent staining by Romanovsky-Giemsa).
First group: 10 min prior immobilization, the animals were injected (perorally, with the help of a stomach pump) with 1.5 ml of 1% starch solution. […] Blood was taken from the caudal vein at the moment of immobilization and 6 hours later, and stained blood smears were prepared to calculate the leukogram.

[2] = tested on: patients with cardiac insufficiency; conditions: for patients of functional class I, day 30 / patients of functional class II, day 30 / patients of functional class III, day 30 / patients of functional class IV, day 30 / patients of functional class I, day 60 / patients of functional class II, day 60 / patients of functional class III, day 60 / patients of functional class IV, day 60 / patients of functional class I, day 90 / patients of functional class II, day 90 / patients of functional class III, day 90 / patients of functional class IV, day 90: 100 mg twice per day with standard therapy; for patients of functional class I, day 30 / patients of functional class II, day 30 / patients of functional class III, day 30 / patients of functional class IV, day 30: after 30 days; for patients of functional class I, day 60 / patients of functional class II, day 60 / patients of functional class III, day 60 / patients of functional class IV, day 60: after 60 days; for patients of functional class I, day 90 / patients of functional class II, day 90 / patients of functional class III, day 90 / patients of functional class IV, day 90: after 90 days; for patients of functional class I, day 0 / patients of functional class II, day 0 / patients of functional class III, day 0 / patients of functional class IV, day 0: with standard therapy, before treatment
Method: The test for cardiotonic activity of product samples was performed by measuring the dynamics of alteration of the functional class of cardiac failure. The functional class can be determined quite accurately by analyzing the everyday life activities according to a specific activity scale. The authors of this technique suppose that the criteria developed by NYHA (New York Heart Association) cannot provide accurate determination of functional class, since widely used terms, such as “everyday physical activity”, “sub-everyday activity” are not specific. On the basis of multiple tests, in which patients exercised on a treadmill, the authors calculated a scale of metabolic expenses for each kind of life activity (see Goldman L., Hashimoto B., Cook F. et al., Comparative reproducibility and validity of systems for assessing cardiovascular functional class: advantages of a new specific activity scale (1981) Circulation 64 (6):1227-34). This inquiry is designed to be used by medical personnel, interviewing a patient. After calculating the sum of possible energy expenses, the functional class of the patient is determined according to the summary criteria of the specific activity scale (Table 6).
In the tests, the patient groups were formed so that the people of the same functional class were equally distributed among different groups. Severe patients (of IV functional class; those having oncological diseases or suffered myocardial infarction/stroke to the brain 60 days or less before) were not admitted to the tests. The distribution of patients among groups was governed by a random number generator. The tests were carried out by the following protocol. Each patient took 100 mg of the preparation twice per day (in the morning and after lunch) during 3 months—against the background of a standard therapy administered by a physician. […] All the samples and placebo were encoded before sending into the clinic, so none of those involved into the tests (patients, physicians, medical personnel and the manager of tests) was aware of the nature of samples.
The functional class of patients was determined several times: at the beginning of tests (before the formation of test groups) and after 30, 60 and 90 days of treatment with the test samples. The estimation was performed on the basis of the activity scale (Table 7).

white rat females = conditions: female, in vivo, 5000 mg/kg; for Total died: 14 days
[3] = compared with “natural” SA
[4] = tested on: erythroid cells isolated from the bone marrow of gamma-irradiated laboratory mice males; test: Radioprotective properties (micronucleus test after gamma irradiation); conditions: for Number of micronuclei per 2000 cells (radioprotective properties): mice irradiated with gamma rays 1.3 Gy, then fed 48 h succinic acid 20 mg/kg body wt., critical value 16±2

SMILES | Number of micronuclei per 2000 cells (genotoxicity) [1] | patients of functional class I, day 30 [2] | patients of functional class II, day 30 [2] | patients of functional class III, day 30 [2] | patients of functional class IV, day 30 [2] | patients of functional class I, day 60 [2] | patients of functional class II, day 60 [2] | patients of functional class III, day 60 [2] | patients of functional class IV, day 60 [2] | patients of functional class I, day 90 [2] | patients of functional class II, day 90 [2] | patients of functional class III, day 90 [2] | patients of functional class IV, day 90 [2] | patients of functional class I, day 0 ([2]; 100 mg twice per day, 3 months) | patients of functional class II, day 0 ([2]; 100 mg twice per day, 3 months) | patients of functional class III, day 0 ([2]; 100 mg twice per day, 3 months) | patients of functional class IV, day 0 ([2]; 100 mg twice per day, 3 months) | died, 14 day (white rat females) | Total died (white rat females) | Number of micronuclei per 2000 cells (radioprotective properties) [4] | other results
O=C(O)CCC(=O)O [Example 3, succinic acid, reference compound] | 5.0 ± 0.6 | 9 | 7 | 4 | 0 | 9 | 7 | 4 | 0 | 10 | 7 | 3 | 0 | 8 | 7 | 5 | 0 | 2 | 2 | 16.0 ± 1.6 | adaptogenic properties, conclusion in words (Wistar rat males; 6-hour immobilization stress, Wistar rats): at the “borderline”; Eosinophils, 6 h after (Wistar rat males; listed as Ex. 3): 0.5 ± 4%; Lymphocytes, 6 h after (Wistar rat males; listed as Ex. 3): 73 ± 5%; Number of leukocytes in 1 μl of blood, 6 h after (Wistar rat males; listed as Ex. 3): 7100; Segmentated cells, 6 h after (Wistar rat males; listed as Ex. 3): 26 ± 3%; Eosinophils, before (Wistar rat males; listed as Ex. 3): 2 ± 6%; Lymphocytes, before (Wistar rat males; listed as Ex. 3): 76 ± 6%; Number of leukocytes in 1 μl of blood, before (Wistar rat males; listed as Ex. 3): 5700; Segmentated cells, before (Wistar rat males; listed as Ex. 3): 22 ± 3%; cardiotonic properties / dynamics of functional class, conclusion in words ([2]; 100 mg twice per day, 3 months): more expressed; biological activity, overall conclusion in words [3]: higher activity but it is far from that of “natural” SA; radioprotective effect, conclusion in words ([4]; gamma rays 1.3 Gy, 20 mg/kg body wt., 48 h, 20 mg/kg): close to the dividing line
O=C(O)CCC(=O)O [Example 10, succinic acid] | 5.0 ± 1.0 | 10 | 5 | 4 | 0 | 10 | 7 | 3 | 0 | 14 | 5 | 1 | 0 | 8 | 7 | 5 | 0 | 2 | 3 | 12.5 ± 1.0 | Eosinophils, 6 h after (Wistar rat males; listed as Ex. 10): 1.5 ± 2%; Lymphocytes, 6 h after (Wistar rat males; listed as Ex. 10): 74 ± 4%; Number of leukocytes in 1 μl of blood, 6 h after (Wistar rat males; listed as Ex. 10): 7000; Segmentated cells, 6 h after (Wistar rat males; listed as Ex. 10): 24 ± 4%; Eosinophils, before (Wistar rat males; listed as Ex. 10): 2 ± 2%; Lymphocytes, before (Wistar rat males; listed as Ex. 10): 76 ± 5%; Number of leukocytes in 1 μl of blood, before (Wistar rat males; listed as Ex. 10): 5800; Segmentated cells, before (Wistar rat males; listed as Ex. 10): 22 ± 3%; died, 13 day (white rat females): 1
O=C(O)CCC(=O)O [Example 9, succinic acid] | 5.0 ± 1.0 | 10 | 6 | 4 | 0 | 11 | 6 | 3 | 0 | 14 | 5 | 1 | 0 | 8 | 7 | 5 | 0 | 1 | 3 | 11.0 ± 1.6 | Eosinophils, 6 h after (Wistar rat males; listed as Ex. 9): 1.5 ± 2%; Lymphocytes, 6 h after (Wistar rat males; listed as Ex. 9): 74 ± 6%; Number of leukocytes in 1 μl of blood, 6 h after (Wistar rat males; listed as Ex. 9): 7000; Segmentated cells, 6 h after (Wistar rat males; listed as Ex. 9): 25 ± 6%; Eosinophils, before (Wistar rat males; listed as Ex. 9): 2 ± 4%; Lymphocytes, before (Wistar rat males; listed as Ex. 9): 76 ± 6%; Number of leukocytes in 1 μl of blood, before (Wistar rat males; listed as Ex. 9): 5800; Segmentated cells, before (Wistar rat males; listed as Ex. 9): 22 ± 3%; died, 13 day (white rat females): 2
O=C(O)CCC(=O)O [Example 7, succinic acid] | 5.0 ± 1.0 | 9 | 6 | 5 | 0 | 13 | 5 | 2 | 0 | 15 | 4 | 1 | 0 | 8 | 7 | 5 | 0 | 2 | 4 | 11.5 ± 1.8 | Eosinophils, 6 h after (Wistar rat males; listed as Ex. 7): 1.5 ± 4%; Lymphocytes, 6 h after (Wistar rat males; listed as Ex. 7): 73 ± 6%; Number of leukocytes in 1 μl of blood, 6 h after (Wistar rat males; listed as Ex. 7): 7200; Segmentated cells, 6 h after (Wistar rat males; listed as Ex. 7): 26 ± 3%; Eosinophils, before (Wistar rat males; listed as Ex. 7): 2 ± 1%; Lymphocytes, before (Wistar rat males; listed as Ex. 7): 75 ± 7%; Number of leukocytes in 1 μl of blood, before (Wistar rat males; listed as Ex. 7): 6000; Segmentated cells, before (Wistar rat males; listed as Ex. 7): 23 ± 3%; died, 13 day (white rat females): 2
O=C(O)CCC(=O)O [Example 4, succinic acid] | 5.5 ± 1.0 | 8 | 7 | 5 | 0 | 9 | 9 | 3 | 0 | 13 | 6 | 1 | 0 | 8 | 7 | 5 | 0 | 1 | 3 | 12.5 ± 2.0 | Eosinophils, 6 h after (Wistar rat males; listed as Ex. 4): 1.5 ± 6%; Lymphocytes, 6 h after (Wistar rat males; listed as Ex. 4): 74 ± 8%; Number of leukocytes in 1 μl of blood, 6 h after (Wistar rat males; listed as Ex. 4): 7100; Segmentated cells, 6 h after (Wistar rat males; listed as Ex. 4): 24 ± 3%; Eosinophils, before (Wistar rat males; listed as Ex. 4): 2 ± 4%; Lymphocytes, before (Wistar rat males; listed as Ex. 4): 77 ± 4%; Number of leukocytes in 1 μl of blood, before (Wistar rat males; listed as Ex. 4): 5900; Segmentated cells, before (Wistar rat males; listed as Ex. 4): 21 ± 2%; died, 12 day (white rat females; 12 day): 1; died, 13 day (white rat females): 1
